Data reported in US4459290A, “C-23-Modified derivatives of OMT, pharmaceutical compositions and method of use” (priority 1982, dated 1984).
Converted amounts (≈) assume the structure as drawn. Where a name gives a salt, the structure may show the parent alone. Read-outs that look alike come from different tables or passages of the source.

How the values were obtained:
[1] = tested on: Pasteurella hemolytica 41D; test: MIC, broth-dilution microtiter test (Table VII); format: cell-based; conditions: Pasteurella, P. hemolytica 41D, read-out: MIC
Procedure: (§1) Especially noteworthy is the improved activity against gram-negative bacteria for several derivatives when compared to the activity of OMT. […] The MIC's in Tables V and VI were determined by standard agar-dilution assays. The MIC's in Table VII were obtained using a conventional broth-dilution microtiter test.

[2] = tested on: Pasteurella multocida 17E; test: MIC, broth-dilution microtiter test (Table VII); format: cell-based; conditions: Pasteurella multocida
Procedure: as §1

[3] = tested on: Pasteurella multocida 68C; test: MIC, broth-dilution microtiter test (Table VII); format: cell-based; conditions: Pasteurella multocida
Procedure: as §1

[4] = tested on: Streptococcus sp. 80; test: MIC, broth-dilution microtiter test (Table VII); format: cell-based; conditions: Streptococcus sp. 80; broth-dilution microtiter; read-out: MIC
Procedure: as §1

[5] = tested on: Pasteurella hemolytica 23C; test: MIC, broth-dilution microtiter test (Table VII); format: cell-based; conditions: Pasteurella, P. hemolytica 23C, read-out: MIC
Procedure: as §1

[6] = tested on: Pasteurella multocida 40G; test: MIC, broth-dilution microtiter test (Table VII); format: cell-based; conditions: Pasteurella multocida; P. multocida 40G; broth-dilution microtiter; read-out: MIC
Procedure: as §1

[7] = tested on: Mycoplasma synoviae; test: MIC, broth-dilution microtiter test (Table VII); format: cell-based; conditions: Mycoplasmopsis synoviae
Procedure: as §1

[8] = tested on: Staphylococcus aureus; test: MIC, broth-dilution microtiter test (Table VII); format: cell-based; conditions: Staphylococcus aureus
Procedure: as §1

[9] = tested on: Pasteurella multocida 22A; test: MIC, broth-dilution microtiter test (Table VII); format: cell-based; conditions: Pasteurella multocida; P. multocida 22A; broth-dilution microtiter; read-out: MIC
Procedure: as §1

[10] = tested on: Mycoplasma gallisepticum; test: MIC, broth-dilution microtiter test (Table VII); format: cell-based; conditions: Mycoplasmoides gallisepticum
Procedure: as §1

[11] = tested on: Pasteurella hemolytica 22C; test: MIC, broth-dilution microtiter test (Table VII); format: cell-based; conditions: Pasteurella, P. hemolytica 22C, read-out: MIC
Procedure: as §1

[12] = tested on: Mycoplasma hyorhinis; test: MIC, broth-dilution microtiter test (Table VII); format: cell-based
Procedure: as §1

[13] = tested on: Pasteurella multocida 60A; test: MIC, broth-dilution microtiter test (Table VII); format: cell-based; conditions: Pasteurella multocida
Procedure: as §1

[14] = tested on: Streptococcus pneumoniae Park I; test: microbe, parasite or virus in culture; format: cell-based; conditions: Streptococcus pneumoniae
Procedure: as §1

[15] = tested on: Streptococcus Group 9960; test: MIC, standard agar-dilution assay (Table V); format: cell-based; conditions: GROUP9960
Procedure: as §1

[16] = tested on: Shigella sonnei N9; test: MIC, standard agar-dilution assay (Table V); format: cell-based
Procedure: as §1

[17] = tested on: Klebsiella pneumoniae KAE; test: MIC, standard agar-dilution assay (Table V); format: cell-based; conditions: Klebsiella pneumoniae
Procedure: as §1

[18] = tested on: Escherichia coli EC14; test: MIC, standard agar-dilution assay (Table V); format: cell-based; conditions: Escherichia coli, EC14
Procedure: as §1

[19] = tested on: Staphylococcus epidermidis EPI2; test: MIC, standard agar-dilution assay (Table V); format: cell-based; conditions: Staphylococcus epidermidis
Procedure: as §1

[20] = tested on: Staphylococcus aureus X1.1; test: MIC, standard agar-dilution assay (Table V); format: cell-based; conditions: Staphylococcus aureus, X1.1
Procedure: as §1

[21] = tested on: Staphylococcus aureus V41; test: MIC, standard agar-dilution assay (Table V); format: cell-based; conditions: Staphylococcus aureus, V41
Procedure: as §1

[22] = tested on: Escherichia coli N10; test: MIC, standard agar-dilution assay (Table V); format: cell-based; conditions: Escherichia coli, N10
Procedure: as §1

[23] = tested on: Klebsiella pneumoniae X26; test: MIC, standard agar-dilution assay (Table V); format: cell-based; conditions: Klebsiella pneumoniae
Procedure: as §1

[24] = tested on: Staphylococcus epidermidis EPI1; test: MIC, standard agar-dilution assay (Table V); format: cell-based; conditions: Staphylococcus epidermidis
Procedure: as §1

[25] = tested on: Streptococcus Group D X66; test: MIC, standard agar-dilution assay (Table V); format: cell-based
Procedure: as §1

[26] = tested on: Staphylococcus aureus S13E; test: MIC, standard agar-dilution assay (Table V); format: cell-based; conditions: Staphylococcus aureus, S13E
Procedure: as §1

[27] = tested on: Staphylococcus aureus X400; test: MIC, standard agar-dilution assay (Table V); format: cell-based; conditions: Staphylococcus aureus
Procedure: as §1

[28] = tested on: Haemophilus influenzae Holt; test: MIC, standard agar-dilution assay (Table V); format: cell-based; conditions: Haemophilus influenzae
Procedure: (§2) The MIC's in Tables V and VI were determined by standard agar-dilution assays. The MIC's in Table VII were obtained using a conventional broth-dilution microtiter test.

[29] = tested on: Escherichia coli TEM; test: MIC, standard agar-dilution assay (Table V); format: cell-based; conditions: Escherichia coli
Procedure: as §2

[30] = tested on: Haemophilus influenzae R252; test: MIC, standard agar-dilution assay (Table V); format: cell-based; conditions: Haemophilus influenzae
Procedure: as §2

[31] = tested on: Streptococcus pyogenes C203; test: MIC, standard agar-dilution assay (Table V); format: cell-based; conditions: Streptococcus pyogenes
Procedure: as §2

[32] = tested on: Pasteurella multocida; test: Protection of one-day-old chicks against Pasteurella multocida infection (Table IX); format: in vivo; conditions: subcutaneous 30 mg/kg × 2, 1 and 4 hours post-challenge
Procedure: The C-23 modified derivatives of OMT have also shown in vivo antibacterial activity against infections induced by gram-negative bacteria. Table IX summarizes the results of tests in which illustrative compounds were evaluated against Pasteurella infections in one-day-old chicks. The compounds were administered by subcutaneous injection at a dosage of 30 mg/kg, 1 and 4 hours post-challenge of the chicks with Pasteurella multocida (0.1 ml of a twenty-hour tryptose broth culture of an avian P. multocida given subcutaneously). In the tests, all ten non-medicated infected chicks died within 24 hours of Pasteurella challenge.

[33] = tested on: Streptococcus pyogenes C203; test: ED50 in mice experimentally infected with S. pyogenes C203 (Table VIII); format: in vivo
Procedure: The C-23 modified derivatives of OMT of this invention have shown in vivo antimicrobial activity against experimental infections. When two doses of test compound were administered to mice experimentally infected with a gram-positive bacterium, S. pyogenes C203, the activity observed was measured as an ED50 value [effective dose in mg/kg to protect 50% of the test animals: see Warren Wick, et al., J. Bacteriol. 81, 233-235 (1961)].

[34] = P. multocida 68C, broth-dilution microtiter, read-out: MIC
[35] = S. aureus, broth-dilution microtiter, read-out: MIC
[36] = M. hyorhinis, broth-dilution microtiter, read-out: MIC
[37] = S. pneumoniae Park I, agar dilution, read-out: MIC
[38] = K. pneumoniae X26, agar dilution, read-out: MIC
[39] = S. epidermidis EPI1, agar dilution, read-out: MIC
[40] = S. pyogenes C203, agar dilution, read-out: MIC
[41] = C203, sc, mice, subcutaneous, doses given 1 and 4 hours postinfection, read-out: ED50, Subcutaneous
[42] = M. synoviae, broth-dilution microtiter, read-out: MIC

SMILES | MIC [1] [µg/mL] | MIC ([2]; 17E) [µg/mL] | MIC [3, 34] [µg/mL] | MIC [4] [µg/mL] | MIC [5] [µg/mL] | MIC [6] [µg/mL] | MIC [8, 35] [µg/mL] | MIC [9] [µg/mL] | MIC [10] [µg/mL] | MIC [11] [µg/mL] | MIC [12, 36] [µg/mL] | MIC ([13]; 60A) [µg/mL] | MIC [16] [µg/mL] | MIC [17] [µg/mL] | MIC [18] [µg/mL] | MIC [20] [µg/mL] | MIC [21] [µg/mL] | MIC [22] [µg/mL] | MIC [26] [µg/mL] | Number of deaths/number treated [32] | also measured
CCC1OC(=O)CC(O)C(C)C(OC2OC(C)C(O)C(N(C)C)C2O)C(CC=O)CC(C)C(=O)C=CC(C)=CC1CNC(=O)[C@H](N)c1ccccc1 (single isomer, unassigned) [Compound 12, 23-Deoxy-23-N-(D-(-)-phenylglycyl)amino-OMT bis(trifluoroacetate) salt] | 50 | 12.5 | 25 | 6.25 | 50 | 25 | 6.25 | 25 | 3.12 | 50 | > 50 | 12.5 | > 128 | > 128 | > 128 | 4 | 8 | > 128 | 8 | 9/10 | MIC [7]: 3.12 µg/mL; MIC [14, 37]: 0.5 µg/mL; MIC [15]: 8 µg/mL; MIC ([19]; EPI2): 8 µg/mL; MIC [23, 38]: 16 µg/mL; MIC [24, 39]: 4 µg/mL; MIC [25]: 8 µg/mL; MIC ([27]; X400): 8 µg/mL; MIC ([28]; H. influenzae Holt, ampicillin-sensitive strain, agar dilution, read-out: MIC): 16 µg/mL; MIC [29]: > 128 µg/mL; MIC ([30]; H. influenzae R252, ampicillin-resistant strain, agar dilution, read-out: MIC): 16 µg/mL; MIC [31, 40]: 0.5 µg/mL; ED50 ([33]; C203, po, read-out: ED50, Oral): > 100 mg/kg; ED50 [33, 41]: 6.2 mg/kg
CCC1OC(=O)CC(O)C(C)C(OC2OC(C)C(O)C(N(C)C)C2O)C(CC=O)CC(C)C(=O)C=CC(C)=CC1CNC(=O)Cc1ccccc1 (stereo not shown) [Compound 10, 23-Deoxy-23-N-(phenylacetyl)amino-OMT] | 25 (≈ 35 µM) | 3.12 (≈ 4.36 µM) |  | 0.19 (≈ 0.266 µM) | 12.5 (≈ 17.5 µM) | 12.5 (≈ 17.5 µM) |  | 25 (≈ 35 µM) | 1.56 (≈ 2.18 µM) | 12.5 (≈ 17.5 µM) |  | 3.12 (≈ 4.36 µM) | > 128 | > 128 | > 128 | 0.5 (≈ 0.699 µM) | 1 (≈ 1.4 µM) | > 128 | 0.5 (≈ 0.699 µM) | 3/10 | MIC ([3]; 68C): 1.56 µg/mL (≈ 2.18 µM); MIC [7, 42]: 0.19 µg/mL (≈ 0.266 µM); MIC [8]: 0.78 µg/mL (≈ 1.09 µM); MIC [12]: 50 µg/mL (≈ 69.9 µM); MIC [14]: 0.25 µg/mL (≈ 0.35 µM); MIC [15]: 0.5 µg/mL (≈ 0.699 µM); MIC ([19]; EPI2): 1 µg/mL (≈ 1.4 µM); MIC ([23]; X26): 8 µg/mL (≈ 11.2 µM); MIC ([24]; EPI1): 0.25 µg/mL (≈ 0.35 µM); MIC [25]: 0.5 µg/mL (≈ 0.699 µM); MIC ([27]; X400): 1 µg/mL (≈ 1.4 µM); MIC [28]: 2 µg/mL (≈ 2.8 µM); MIC ([29]; E. coli TEM, agar dilution, read-out: MIC): 32 µg/mL (≈ 44.8 µM); MIC ([30]; R252): 2 µg/mL (≈ 2.8 µM); MIC ([31]; C203): 0.25 µg/mL (≈ 0.35 µM); ED50 ([33]; C203, po, read-out: ED50, Oral): > 100 mg/kg; ED50 [33, 41]: 5.8 mg/kg
CCC1OC(=O)CC(O)C(C)C(OC2OC(C)C(O)C(N(C)C)C2O)C(CC=O)CC(C)C(=O)C=CC(C)=CC1CNC(=O)[C@H](NC(=O)OC(C)(C)C)c1ccccc1 (single isomer, unassigned) [Compound 11, 23-Deoxy-23-[(D)-(-)-(N-t-BOC-phenylglycyl)amino]-OMT] | 50 (≈ 60.2 µM) |  | 6.25 (≈ 7.53 µM) | 0.78 (≈ 0.94 µM) | 25 (≈ 30.1 µM) | 12.5 (≈ 15.1 µM) | 3.12 (≈ 3.76 µM) | 12.5 (≈ 15.1 µM) |  | 25 (≈ 30.1 µM) | > 50 |  | > 128 | > 128 | > 128 | 1 (≈ 1.2 µM) | 2 (≈ 2.41 µM) | > 128 | 2 (≈ 2.41 µM) | 10/10 | MIC ([2]; P. multocida 17E, bovine isolate, broth-dilution microtiter, read-out: MIC): 6.25 µg/mL (≈ 7.53 µM); MIC [7, 42]: 0.78 µg/mL (≈ 0.94 µM); MIC ([10]; M. gallisepticum, broth-dilution microtiter, read-out: MIC): 0.78 µg/mL (≈ 0.94 µM); MIC ([13]; P. multocida 60A, avian isolate, broth-dilution microtiter, read-out: MIC): 12.5 µg/mL (≈ 15.1 µM); MIC [14, 37]: 0.25 µg/mL (≈ 0.301 µM); MIC ([15]; Streptococcus Group 9960, agar dilution, read-out: MIC): 2 µg/mL (≈ 2.41 µM); MIC ([19]; S. epidermidis EPI2, agar dilution, read-out: MIC): 4 µg/mL (≈ 4.82 µM); MIC [23, 38]: 16 µg/mL (≈ 19.3 µM); MIC [24, 39]: 1 µg/mL (≈ 1.2 µM); MIC ([25]; Streptococcus Group D X66, agar dilution, read-out: MIC): 2 µg/mL (≈ 2.41 µM); MIC ([27]; S. aureus X400, methicillin-resistant strain, agar dilution, read-out: MIC): 4 µg/mL (≈ 4.82 µM); MIC [28]: 8 µg/mL (≈ 9.64 µM); MIC [29]: > 128 µg/mL; MIC ([30]; R252): 8 µg/mL (≈ 9.64 µM); MIC [31, 40]: 0.5 µg/mL (≈ 0.602 µM)
